Measured values reported in patent US20230321012A1 (priority 2021, published 2023).

Tests used:
clinical = assay: clinical
Experimental: Clinical Trial Outline. […] All solid tumor types are eligible for the trial. […] An expansion cohort was included at the RP2D level to confirm safety and tolerability of the combination. […] In Part 2, patients were treated by giving both agents twice daily (BID dosing schedule).
Plasma samples were analyzed for AMXT 1501 concentration via a LC/MS^2 procedure (MI-0028-DB-AB; Agilux Laboratories, Worcester, Massachusetts), and the resulting concentration versus time data were used to estimate individual PK parameters using noncompartmental analysis (NCA).

in vivo = settings: BALB/c, mouse, 2.5 mg/kg

Structure (SMILES): CCCCCCCCCCCCCCCC(=O)NCCCC[C@@H](N)C(=O)NCCCNCCCCNCCCN [AMXT 1501, D-lys(palmitoyl)-spermine]
- AUC(0-t) (clinical; human, plasma, oral, 1200 mg, AUC0-6 hr Median, Part 1 Cohort 4, 1200 mg QD, Cycle 1 Day 1): 238 ng·h/mL
- AUC(0-t) (clinical; human, plasma, oral, 1200 mg, AUC0-6 hr Median, Part 1 Cohort 4, 1200 mg QD, Cycle 1 Day 14): 681 ng·h/mL
- AUC(0-t) (clinical; human, plasma, oral, 1200 mg, AUC0-t Mean, Part 1 Cohort 4, 1200 mg QD, Cycle 1 Day 1): 2730 ng·h/mL
- AUC(0-t) (clinical; human, plasma, oral, 1200 mg, AUC0-t Mean, Part 1 Cohort 4, 1200 mg QD, Cycle 1 Day 14): 4700 ng·h/mL
- AUC(0-t) (clinical; human, plasma, oral, 1200 mg, AUC0-t Median, Part 1 Cohort 4, 1200 mg QD, Cycle 1 Day 1): 831 ng·h/mL
- AUC(0-t) (clinical; human, plasma, oral, 1200 mg, AUC0-t Median, Part 1 Cohort 4, 1200 mg QD, Cycle 1 Day 14): 3490 ng·h/mL
- Cmax (clinical; human, plasma, oral, 1200 mg, Cmax Mean, Part 1 Cohort 4, 1200 mg QD, Cycle 1 Day 1): 104 ng/mL
- Cmax (clinical; human, plasma, oral, 1200 mg, Cmax Mean, Part 1 Cohort 4, 1200 mg QD, Cycle 1 Day 14): 276 ng/mL
- Cmax (clinical; human, plasma, oral, 1200 mg, Cmax Median, Part 1 Cohort 4, 1200 mg QD, Cycle 1 Day 1): 71.2 ng/mL
- Cmax (clinical; human, plasma, oral, 1200 mg, Cmax Median, Part 1 Cohort 4, 1200 mg QD, Cycle 1 Day 14): 227 ng/mL
- Tmax (clinical; human, plasma, oral, 1200 mg, Tmax Mean, Part 1 Cohort 4, 1200 mg QD, Cycle 1 Day 1): 11.3 h
- Tmax (clinical; human, plasma, oral, 1200 mg, Tmax Mean, Part 1 Cohort 4, 1200 mg QD, Cycle 1 Day 14): 6 h
- Tmax (clinical; human, plasma, oral, 1200 mg, Tmax Median, Part 1 Cohort 4, 1200 mg QD, Cycle 1 Day 1): 6 h
- Tmax (clinical; human, plasma, oral, 1200 mg, Tmax Median, Part 1 Cohort 4, 1200 mg QD, Cycle 1 Day 14): 6 h
- AUC (clinical; human, plasma, oral, 1800 mg): 14200 ng·h/mL
- AUC(0-t) (clinical; human, plasma, oral, 1800 mg, AUC0-6 hr Mean, Part 1 Cohort 5, 1800 mg QD, Cycle 1 Day 1): 750 ng·h/mL
- AUC(0-t) (clinical; human, plasma, oral, 1800 mg, AUC0-6 hr Mean, Part 1 Cohort 5, 1800 mg QD, Cycle 1 Day 14): 3110 ng·h/mL
- AUC(0-t) (clinical; human, plasma, oral, 1800 mg, AUC0-6 hr Mean, Part 1 Cohort 5, 1800 mg QD, Cycle 2 Day 14, n=1): 7240 ng·h/mL
- AUC(0-t) (clinical; human, plasma, oral, 1800 mg, AUC0-6 hr Median, Part 1 Cohort 5, 1800 mg QD, Cycle 1 Day 1): 662 ng·h/mL
- AUC(0-t) (clinical; human, plasma, oral, 1800 mg, AUC0-6 hr Median, Part 1 Cohort 5, 1800 mg QD, Cycle 1 Day 14): 3020 ng·h/mL
- AUC(0-t) (clinical; human, plasma, oral, 1800 mg, AUC0-6 hr Median, Part 1 Cohort 5, 1800 mg QD, Cycle 2 Day 14, n=1): 7240 ng·h/mL
- AUC(0-t) (clinical; human, plasma, oral, 1800 mg, AUC0-t Mean, Part 1 Cohort 5, 1800 mg QD, Cycle 1 Day 1): 10200 ng·h/mL
- AUC(0-t) (clinical; human, plasma, oral, 1800 mg, AUC0-t Mean, Part 1 Cohort 5, 1800 mg QD, Cycle 1 Day 14): 14200 ng·h/mL
- AUC(0-t) (clinical; human, plasma, oral, 1800 mg, AUC0-t Mean, Part 1 Cohort 5, 1800 mg QD, Cycle 2 Day 14, n=1): 33700 ng·h/mL
- AUC(0-t) (clinical; human, plasma, oral, 1800 mg, AUC0-t Median, Part 1 Cohort 5, 1800 mg QD, Cycle 1 Day 1): 12700 ng·h/mL
- AUC(0-t) (clinical; human, plasma, oral, 1800 mg, AUC0-t Median, Part 1 Cohort 5, 1800 mg QD, Cycle 1 Day 14): 12800 ng·h/mL
- AUC(0-t) (clinical; human, plasma, oral, 1800 mg, AUC0-t Median, Part 1 Cohort 5, 1800 mg QD, Cycle 2 Day 14, n=1): 33700 ng·h/mL
- Cmax (clinical; human, plasma, oral, 1800 mg, Cmax Mean, Part 1 Cohort 5, 1800 mg QD, Cycle 1 Day 1): 367 ng/mL
- Cmax (clinical; human, plasma, oral, 1800 mg, Cmax Mean, Part 1 Cohort 5, 1800 mg QD, Cycle 1 Day 14): 794 ng/mL
- Cmax (clinical; human, plasma, oral, 1800 mg, Cmax Mean, Part 1 Cohort 5, 1800 mg QD, Cycle 2 Day 14, n=1): 1950 ng/mL
- Cmax (clinical; human, plasma, oral, 1800 mg, Cmax Median, Part 1 Cohort 5, 1800 mg QD, Cycle 1 Day 1): 374 ng/mL
- Cmax (clinical; human, plasma, oral, 1800 mg, Cmax Median, Part 1 Cohort 5, 1800 mg QD, Cycle 1 Day 14): 766 ng/mL
- Cmax (clinical; human, plasma, oral, 1800 mg, Cmax Median, Part 1 Cohort 5, 1800 mg QD, Cycle 2 Day 14, n=1): 1950 ng/mL
- Tmax (clinical; human, plasma, oral, 1800 mg, Tmax Mean, Part 1 Cohort 5, 1800 mg QD, Cycle 1 Day 14): 5.5 h
- Tmax (clinical; human, plasma, oral, 1800 mg, Tmax Mean, Part 1 Cohort 5, 1800 mg QD, Cycle 2 Day 14, n=1): 6 h
- Tmax (clinical; human, plasma, oral, 1800 mg, Tmax Median, Part 1 Cohort 5, 1800 mg QD, Cycle 1 Day 1): 6 h
- Tmax (clinical; human, plasma, oral, 1800 mg, Tmax Median, Part 1 Cohort 5, 1800 mg QD, Cycle 1 Day 14): 6 h
- Tmax (clinical; human, plasma, oral, 1800 mg, Tmax Median, Part 1 Cohort 5, 1800 mg QD, Cycle 2 Day 14, n=1): 6 h
- Cmax (clinical; human, plasma, oral, 1800 mg, average Cmax, plasma AMXT 1501, Part 1 Cohort 5, 1,800 mg, repeat dosing Day 14, n=4): 794 ng/mL
- AUC(0-t) (clinical; human, plasma, oral, AUC0-6 hr Mean, Part 1 Cohort 1, 80 mg QD, Cycle 1 Day 28, +DFMO 500 mg/day): 60.5 ng·h/mL
- AUC(0-t) (clinical; human, plasma, oral, AUC0-6 hr Mean, Part 1 Cohort 2, 160 mg QD, Cycle 1 Day 28, +DFMO 500 mg/day): 88.6 ng·h/mL
- AUC(0-t) (clinical; human, plasma, oral, AUC0-6 hr Mean, Part 1 Cohort 3, 400 mg QD, Cycle 1 Day 28, +DFMO 500 mg/day): 234 ng·h/mL
- AUC(0-t) (clinical; human, plasma, oral, AUC0-6 hr Mean, Part 1 Cohort 5, 1800 mg QD, Cycle 1 Day 28, +DFMO 500 mg/day): 1860 ng·h/mL
- AUC(0-t) (clinical; human, plasma, oral, AUC0-6 hr Median, Part 1 Cohort 1, 80 mg QD, Cycle 1 Day 28, +DFMO 500 mg/day): 62.9 ng·h/mL
- AUC(0-t) (clinical; human, plasma, oral, AUC0-6 hr Median, Part 1 Cohort 2, 160 mg QD, Cycle 1 Day 28, +DFMO 500 mg/day): 84.8 ng·h/mL
- AUC(0-t) (clinical; human, plasma, oral, AUC0-6 hr Median, Part 1 Cohort 3, 400 mg QD, Cycle 1 Day 28, +DFMO 500 mg/day): 93.8 ng·h/mL
- AUC(0-t) (clinical; human, plasma, oral, AUC0-6 hr Median, Part 1 Cohort 5, 1800 mg QD, Cycle 1 Day 28, +DFMO 500 mg/day): 1430 ng·h/mL
- AUC(0-t) (clinical; human, plasma, oral, AUC0-t Mean, Part 1 Cohort 1, 80 mg QD, Cycle 1 Day 28, +DFMO 500 mg/day): 169 ng·h/mL
- AUC(0-t) (clinical; human, plasma, oral, AUC0-t Mean, Part 1 Cohort 2, 160 mg QD, Cycle 1 Day 28, +DFMO 500 mg/day): 150 ng·h/mL
- AUC(0-t) (clinical; human, plasma, oral, AUC0-t Mean, Part 1 Cohort 3, 400 mg QD, Cycle 1 Day 28, +DFMO 500 mg/day): 791 ng·h/mL
- AUC(0-t) (clinical; human, plasma, oral, AUC0-t Mean, Part 1 Cohort 5, 1800 mg QD, Cycle 1 Day 28, +DFMO 500 mg/day): 7370 ng·h/mL
- AUC(0-t) (clinical; human, plasma, oral, AUC0-t Median, Part 1 Cohort 1, 80 mg QD, Cycle 1 Day 28, +DFMO 500 mg/day): 62.9 ng·h/mL
- AUC(0-t) (clinical; human, plasma, oral, AUC0-t Median, Part 1 Cohort 2, 160 mg QD, Cycle 1 Day 28, +DFMO 500 mg/day): 112 ng·h/mL
- AUC(0-t) (clinical; human, plasma, oral, AUC0-t Median, Part 1 Cohort 3, 400 mg QD, Cycle 1 Day 28, +DFMO 500 mg/day): 422 ng·h/mL
- AUC(0-t) (clinical; human, plasma, oral, AUC0-t Median, Part 1 Cohort 5, 1800 mg QD, Cycle 1 Day 28, +DFMO 500 mg/day): 6920 ng·h/mL
- Cmax (clinical; human, plasma, oral, Cmax Mean, Part 1 Cohort 1, 80 mg QD, Cycle 1 Day 28, +DFMO 500 mg/day): 16.4 ng/mL
- Cmax (clinical; human, plasma, oral, Cmax Mean, Part 1 Cohort 2, 160 mg QD, Cycle 1 Day 28, +DFMO 500 mg/day): 23.7 ng/mL
- Cmax (clinical; human, plasma, oral, Cmax Mean, Part 1 Cohort 3, 400 mg QD, Cycle 1 Day 28, +DFMO 500 mg/day): 55.8 ng/mL
- Cmax (clinical; human, plasma, oral, Cmax Mean, Part 1 Cohort 5, 1800 mg QD, Cycle 1 Day 28, +DFMO 500 mg/day): 401 ng/mL
- Cmax (clinical; human, plasma, oral, Cmax Median, Part 1 Cohort 1, 80 mg QD, Cycle 1 Day 28, +DFMO 500 mg/day): 15.1 ng/mL
- Cmax (clinical; human, plasma, oral, Cmax Median, Part 1 Cohort 2, 160 mg QD, Cycle 1 Day 28, +DFMO 500 mg/day): 23.2 ng/mL
- Cmax (clinical; human, plasma, oral, Cmax Median, Part 1 Cohort 3, 400 mg QD, Cycle 1 Day 28, +DFMO 500 mg/day): 20.3 ng/mL
- Cmax (clinical; human, plasma, oral, Cmax Median, Part 1 Cohort 5, 1800 mg QD, Cycle 1 Day 28, +DFMO 500 mg/day): 321 ng/mL
- Tmax (clinical; human, plasma, oral, Tmax Mean, Part 1 Cohort 1, 80 mg QD, Cycle 1 Day 28, +DFMO 500 mg/day): 11.3 h
- Tmax (clinical; human, plasma, oral, Tmax Mean, Part 1 Cohort 2, 160 mg QD, Cycle 1 Day 28, +DFMO 500 mg/day): 4.5 h
- Tmax (clinical; human, plasma, oral, Tmax Mean, Part 1 Cohort 3, 400 mg QD, Cycle 1 Day 28, +DFMO 500 mg/day): 11.3 h
- Tmax (clinical; human, plasma, oral, Tmax Mean, Part 1 Cohort 5, 1800 mg QD, Cycle 1 Day 28, +DFMO 500 mg/day): 4.67 h
- Tmax (clinical; human, plasma, oral, Tmax Median, Part 1 Cohort 1, 80 mg QD, Cycle 1 Day 28, +DFMO 500 mg/day): 6 h
- Tmax (clinical; human, plasma, oral, Tmax Median, Part 1 Cohort 2, 160 mg QD, Cycle 1 Day 28, +DFMO 500 mg/day): 4 h
- Tmax (clinical; human, plasma, oral, Tmax Median, Part 1 Cohort 3, 400 mg QD, Cycle 1 Day 28, +DFMO 500 mg/day): 6 h
- Tmax (clinical; human, plasma, oral, Tmax Median, Part 1 Cohort 5, 1800 mg QD, Cycle 1 Day 28, +DFMO 500 mg/day): 4 h
- Cmax (clinical; human, plasma, oral, mean Cmax, plasma AMXT 1501, n=9 patients, 1,200 mg daily split BID plus 1,000 mg daily DFMO split BID): 493 ng/mL
- Cmax (clinical; human, plasma, oral, plasma AMXT 1501 Cmax with no DLTs observed, a couple of adult patients): > 1000 ng/mL
- Cmax (clinical; human, plasma, oral, plasma Cmax, AMXT 1501, melanoma patient, 1,200 mg daily split BID plus 1,000 mg daily DFMO): 239 ng/mL
- effect of co-administration of DFMO on PK of AMXT 1501 (clinical; patients, DFMO co-administration): no obvious effect
- dose dependence of mean AMXT 1501 exposure (clinical; single or repeat PO dosing, dose levels of 160 mg and higher): increased in a dose-dependent manner
- plasma AMXT 1501 level achieved (clinical; three patients in First-in-Human trial): 1,000 ng/mL
- AUC (in vivo; plasma, sc): 8270 ng·h/mL
- AUC(0-inf) (in vivo; plasma, sc): 8890 ng·h/mL
- Cmax (in vivo; plasma, sc): 978 ng/mL
- Kp (in vivo; tumor and plasma, sc): 15.5
- Kp at 72 h (in vivo; tumor and plasma, sc): 894
- Kp (in vivo; tumor and plasma, subcutaneous): 18
- concentration at 72 h (in vivo; tumor, subcutaneous): ~1000 ng/mL
